Measurements: US20230020329A1, “Annelated 9-hydroxy-1,8-dioxo-1,3,4,8-tetrahydro-2H-pyrido[1,2-a]pyrazine-7-carboxamides as HIV integrase inhibitors, methods of preparation and application thereof” (priority 2019, published 2023)

tested on: HIV-1 (IIIB strain); assay: Anti-HIV cytoprotection assay (XTT), HIV-1 IIIB in CEM-SS cells; format: cell-based; settings: Human immunodeficiency virus 1, IIIB, CEM-SS, CEM-SS cell line; read-out: Inhibitory activity (EC50) against HIV-1 (IIIB strain)
Excerpt: a) Inhibitory Activity of the Lymphocytropic Virus Strain HIV-1 (IIIB) in the CEM-SS Cell Line.
The evaluation was done by ImQuest BioSciences, Inc. (Frederick, Md., USA). CEM-SS cells [Foley G. E. et al. Continuous Culture of Human Lymphoblasts from Peripheral Blood of a Child with Acute Leukemia. Cancer 1965, 18, 522-529] obtained through the NIH AIDS Research and Reference Reagent Program (Manassas, Va., USA) were passaged in T-75 flasks prior to use cell culture medium consisting of RPMI1640 medium (Lonza; Walkersville, Md., USA) supplemented with 10% heat inactivated fetal bovine serum (Gibco; Grand Island, N.Y.), […] L-glutamine (Lonza), […] penicillin (Lonza) and […] streptomycin (Lonza) for antiviral analysis. The CEM-SS cells were kept in RPMI 140 medium supplemented with 10% heat inactivated bovine fetal serum, 2 mM glutamine, 100 U/ml penicillin, and 100 μg/ml streptomycin.
A lymphocytropic HIV-1 IIIB strain [Popovic, M. et al. Detection, isolation, and continuous production of cytopathic retroviruses (HTLV-III) from patients with AIDS and pre-AIDS. Science. 1984, 224 (4648), 497-500] was chosen for a virus to be analyzed. The virus was obtained through the NIH AIDS Research and Reference Reagents Program and grown in CEM-SS cells to produce a stock virus pool. A pre-titrated aliquot of the virus was removed from the freezer (−80° C.) and allowed to slowly thaw to room temperature in a biological safety cabinet. The virus was diluted in a tissue culture medium so that the amount of virus added in 50 μl per well was sufficient to kill 85 to 95% of the cells 6 days after infection. HIV-1 IIIB was grown and titrated in CEM-SS cells. The inhibitory effect of […] was evaluated in CEM-SS cells as described earlier [Nara, P. L. at al. Simple, rapid, quantitative, syncytium-forming microassay for the detection of human immunodeficiency virus neutralizing antibody. AIDS Res. Hum. Retroviruses 1987, 3, 283-302.] in microtiter plate anti-HIV assays to quantitatively assess the ability of a compound to inhibit HIV-induced cell death. Quantification was carried out using 2,3-bis-(2-methoxy-4-nitro-5-[…])-(2H)-tetrazolium-5-carboxanilide (XTT) tetrazolium, which is metabolized to a stained formazan product through viable […] The compounds given in Table 1 were dissolved at 10 μM in DMSO and stored at −20° C.
Test materials were evaluated using antiviral assays in triplicate in concentrations of 30 and 10 nM. The compounds shown in table 1 were dissolved at 10 μM in DMSO and stored at −20° C. […] Sixty nanomolar concentrations of each compound (2 times that of the test concentration in the well) were prepared by diluting 10 μM DMSO stock 1:100 in cell culture medium (10 μl of compound added to 990 μl of the medium) followed by 1:10 dilution (10 μl of the compound was added to 90 μl of the medium), then 6 μl was added to 994 μl of the medium; […] μl was added to a 96-well microtiter plate in triplicate to ensure efficacy and one colorimetric well. Twenty nanomolar concentrations of each compound (twice as much as the test concentration in the well) were prepared by diluting 10 μM DMSO with the original 1:100 in cell culture medium (10 μl of the compound added to 990 μl of the medium) followed by diluting […] (10 μl of the compound was added to 900 μl of the medium), then 20 μl was added to 980 μl of the medium; 100 μl was added to a 96-well microtiter plate in triplicate to ensure efficacy and one colorimetric well.
Azidothymidine (AZT) was purchased from Sigma Aldrich (USA) and evaluated as a positive control compound in an antiviral assay using a six-concentration reaction curve on each assay plate.
Test compounds were initially evaluated for HIV-1 IIIB strain in CEM-SS cells at test concentrations of 30 and 10 nM. […]

Row | Compound | EC50
1 | O=C(NCc1ccc(F)nc1F)c1cn2c(c(O)c1=O)C(=O)N1[C@H]3CC[C@H](C3)O[C@@H]1C2 [Compound 1.3.1, (2R,5S,13aR)-8-hydroxy-N-[(2,6-difluoropyridin-3-yl)methyl]-7,9-dioxo-2,3,4,5,7,9,13,13a-octahydro-2,5-methanopyrido[1′,2′:4,5]pyrazino[2,1-b][1,3]oxazepine-10-carboxamide] | 2 to 10 nM
2 | O=C(NCc1c(F)cncc1F)c1cn2c(c(O)c1=O)C(=O)N1[C@H]3CC[C@H](C3)O[C@@H]1C2 [Compound 1.3.3, (2R,5S,13aR)-8-hydroxy-N-[(3,5-difluoropyridin-4-yl)methyl]-7,9-dioxo-2,3,4,5,7,9,13,13a-octahydro-2,5-methanopyrido[1′,2′:4,5]pyrazino[2,1-b][1,3]oxazepine-10-carboxamide] | 2 to 10 nM
3 | C[C@H]1CO[C@@H]2Cn3cc(C(=O)NCc4ccc5[nH]c(=O)[nH]c5c4)c(=O)c(O)c3C(=O)N12 [Compound 1.1.46, (3S,11aR)-6-hydroxy-N-[(2-oxo-2,3-dihydro-1H-benzimidazol-5-yl)methyl]-3-methyl-5,7-dioxo-2,3,5,7,11,11a-hexahydro[1,3]oxazolo[3,2-a]pyrido[1,2-d]pyrazine-8-carboxamide] | > 30 nM
4 | C[C@H]1CO[C@@H]2Cn3cc(C(=O)NCc4cnc5ccccn45)c(=O)c(O)c3C(=O)N12 [Compound 1.1.56, (3S,11aR)-6-hydroxy-N-(imidazo[1,2-a]pyridin-3-ylmethyl)-3-methyl-5,7-dioxo-2,3,5,7,11,11a-hexahydro[1,3]oxazolo[3,2-a]pyrido[1,2-d]pyrazine-8-carboxamide] | > 30 nM
5 | C[C@H]1CO[C@@H]2Cn3cc(C(=O)NCc4nc5ccc(Cl)cc5n4C)c(=O)c(O)c3C(=O)N12 [Compound 1.1.43, (3S,11aR)-6-hydroxy-3-methyl-N-[(1-methyl-6-chlorobenzimidazol-2-yl)methyl]-5,7-dioxo-2,3,5,7,11,11a-hexahydro[1,3]oxazolo[3,2-a]pyrido[1,2-d]pyrazine-8-carboxamide] | > 30 nM
6 | Cc1nnsc1CNC(=O)c1cn2c(c(O)c1=O)C(=O)N1[C@@H](C)CO[C@@H]1C2 [Compound 1.1.11, (3S,11aR)-6-hydroxy-3-methyl-N-[(4-methyl-1,2,3-thiadiazol-5-yl)methyl]-5,7-dioxo-2,3,5,7,11,11a-hexahydro[1,3]oxazolo[3,2-a]pyrido[1,2-d]pyrazine-8-carboxamide] | > 30 nM
7 | C[C@H]1CO[C@@H]2Cn3cc(C(=O)NCc4cn5ncsc5n4)c(=O)c(O)c3C(=O)N12 [Compound 1.1.29, (3S,11aR)-6-hydroxy-N-(imidazo[2,1-b][1,3,4]thiadiazol-6-ylmethyl)-3-methyl-5,7-dioxo-2,3,5,7,11,11a-hexahydro[1,3]oxazolo[3,2-a]pyrido[1,2-d]pyrazine-8-carboxamide] | > 30 nM
8 | C[C@H]1CO[C@@H]2Cn3cc(C(=O)NCc4c(F)ccnc4F)c(=O)c(O)c3C(=O)N12 [Compound 1.1.21, (3S,11aR)-6-hydroxy-N-[(2,4-difluoropyridin-3-yl)methyl]-3-methyl-5,7-dioxo-2,3,5,7,11,11a-hexahydro[1,3]oxazolo[3,2-a]pyrido[1,2-d]pyrazine-8-carboxamide] | > 30 nM

The remaining lines, values ahead:

Row | EC50 | Compound
9 | 2 to 10 nM | C[C@@H]1CO[C@@]23CCC[C@@H]2n2cc(C(=O)NCc4c(F)cncc4F)c(=O)c(O)c2C(=O)N13 [Compound 2.1.2, (3aS,6R,13aS)-9-hydroxy-N-[(3,5-difluoropyridin-4-yl)methyl]-6-methyl-8,10-dioxo-1,2,3,5,6,8,10,13a-octahydrocyclopenta[b][1,3]oxazolo[3,2-a]pyrido[1,2-d]pyrazine-11-carboxamide]
10 | 2 to 10 nM | C[C@@H]1CCO[C@H]2Cn3cc(C(=O)NCc4c(F)cc(F)nc4F)c(=O)c(O)c3C(=O)N12 [Compound 1.2.3, (4R,12aS)-7-hydroxy-4-methyl-N-[(2,4.6-trifluoropyridin-3-yl)methyl]-6,8-dioxo-3,4,6,8,12,12a-hexahydro-2H-pyrido[1′,2′:4,5]pyrazino[2,1-b][1,3]oxazine-9-carboxamide]
11 | ~10 nM | C[C@H]1CO[C@@]23CCC[C@@H]2n2cc(C(=O)NCc4ccc(F)nc4F)c(=O)c(O)c2C(=O)N13 [Compound 2.2.1, (3aS,6S,13aS)-9-hydroxy-N-[(2,6-difluoropyridin-3-yl)methyl]-6-methyl-8,10-dioxo-1,2,3,5,6,8,10,13a-octahydrocyclopenta[b][1,3]oxazolo[3,2-a]pyrido[1,2-d]pyrazine-11-carboxamide]
12 | 2 to 10 nM | C[C@H]1CO[C@@H]2Cn3cc(C(=O)NCc4cnc5ccccc5c4)c(=O)c(O)c3C(=O)N12 [Compound 1.1.50, (3S,11aR)-6-hydroxy-3-methyl-N-(quinolin-3-ylmethyl)-5,7-dioxo-2,3,5,7,11,11a-hexahydro[1,3]oxazolo[3,2-a]pyrido[1,2-d]pyrazine-8-carboxamide]
13 | 2 to 10 nM | C[C@H]1CO[C@@H]2Cn3cc(C(=O)NCc4n[nH]c5c4CCCCC5)c(=O)c(O)c3C(=O)N12 [Compound 1.1.62, (3S,11aR)-6-hydroxy-N-(1,4,5,6,7,8-hexahydrocyclohepta[c]pyrazol-3-ylmethyl)-3-methyl-5,7-dioxo-2,3,5,7,11,11a-hexahydro[1,3]oxazolo[3,2-a]pyrido[1,2-d]pyrazine-8-carboxamide]
14 | 10 to 30 nM | C[C@H]1CO[C@@H]2Cn3cc(C(=O)NCc4ccc5c(ccn5C)c4)c(=O)c(O)c3C(=O)N12 [Compound 1.1.33, (3S,11aR)-6-hydroxy-3-methyl-N-[(1-methyl-1H-indol-5-yl)methyl]-5,7-dioxo-2,3,5,7,11,11a-hexahydro[1,3]oxazolo[3,2-a]pyrido[1,2-d]pyrazine-8-carboxamide]
15 | 2 to 10 nM | C[C@@H]1CO[C@@]23CCC[C@@H]2n2cc(C(=O)NCc4c(F)cc(F)nc4F)c(=O)c(O)c2C(=O)N13 [Compound 2.1.3, (3aS,6R,13aS)-9-hydroxy-6-methyl-N-[(2,4,6-trifluoropyridin-3-yl)methyl]-8,10-dioxo-1,2,3,5,6,8,10,13a-octahydrocyclopenta[b][1,3]oxazolo[3,2-a]pyrido[1,2-d]pyrazine-11-carboxamide]
16 | ~10 nM | C[C@H]1CO[C@@H]2Cn3cc(C(=O)NCc4nncn4C)c(=O)c(O)c3C(=O)N12 [Compound 1.1.14, (3S,11aR)-6-hydroxy-3-methyl-N-[(4-methyl-4H-1,2,4-triazol-3-yl)methyl]-5,7-dioxo-2,3,5,7,11,11a-hexahydro[1,3]oxazolo[3,2-a]pyrido[1,2-d]pyrazine-8-carboxamide]
17 | 10 to 30 nM | C[C@H]1CO[C@@H]2Cn3cc(C(=O)NCc4ccc(Cl)nc4)c(=O)c(O)c3C(=O)N12 [Compound 1.1.18, (3S,11aR)-6-hydroxy-N-[(6-chloropyridin-3-yl)methyl]-3-methyl-5,7-dioxo-2,3,5,7,11,11a-hexahydro[1,3]oxazolo[3,2-a]pyrido[1,2-d]pyrazine-8-carboxamide]
18 | 10 to 30 nM | Cc1nccc(CNC(=O)c2cn3c(c(O)c2=O)C(=O)N2[C@@H](C)CO[C@@H]2C3)n1 [Compound 1.1.26, (3S,11aR)-6-hydroxy-3-methyl-N-[(2-methylpyrimidin-4-yl)methyl]-5,7-dioxo-2,3,5,7,11,11a-hexahydro[1,3]oxazolo[3,2-a]pyrido[1,2-d]pyrazine-8-carboxamide]
